Columns and labels:
DLK = DLK (Homo sapiens (Human), UniProt Q12852); test: DLK biochemical assay (TR-FRET, MKK7 phosphorylation)
Summary of the method: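 Catalytic-domain DLK (10 nM) phosphorylates His-MKK7 (15 nM) with 60 μM ATP, 90 min at RT, in pH 7.5 HEPES buffer. Phospho-T275/S277 read by TR-FRET (Eu anti-phospho donor, XL665 anti-His acceptor) after 16 h detection, at 37° C. in 1536 or 4° C. in 384 format.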

LZK = LZK (Homo sapiens (Human), UniProt O43283); test: LZK biochemical assay (TR-FRET, MKK7 phosphorylation)
Chain of LZK (O43283 168-409): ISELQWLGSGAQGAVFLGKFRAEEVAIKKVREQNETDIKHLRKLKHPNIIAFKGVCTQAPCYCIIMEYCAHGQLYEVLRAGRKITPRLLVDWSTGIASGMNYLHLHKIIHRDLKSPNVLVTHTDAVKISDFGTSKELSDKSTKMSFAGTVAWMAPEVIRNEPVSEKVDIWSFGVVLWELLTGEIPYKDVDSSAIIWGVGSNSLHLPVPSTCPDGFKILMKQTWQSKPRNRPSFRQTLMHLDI
Summary of the method: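 Catalytic-domain LZK (10 nM) phosphorylated His-MKK7 (15 nM) with 15 μM ATP for 90 min at RT. Phospho-T275/S277 detected by Eu-anti-phospho-MKK7/XL665-anti-His TR-FRET after 16 h at 32° C, using the 665/Eu ratio. Buffer: 50 mM Hepes pH 7.5, 10 mM MgCl2, 1 mM DTT.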

Chain of DLK (Q12852 1-520): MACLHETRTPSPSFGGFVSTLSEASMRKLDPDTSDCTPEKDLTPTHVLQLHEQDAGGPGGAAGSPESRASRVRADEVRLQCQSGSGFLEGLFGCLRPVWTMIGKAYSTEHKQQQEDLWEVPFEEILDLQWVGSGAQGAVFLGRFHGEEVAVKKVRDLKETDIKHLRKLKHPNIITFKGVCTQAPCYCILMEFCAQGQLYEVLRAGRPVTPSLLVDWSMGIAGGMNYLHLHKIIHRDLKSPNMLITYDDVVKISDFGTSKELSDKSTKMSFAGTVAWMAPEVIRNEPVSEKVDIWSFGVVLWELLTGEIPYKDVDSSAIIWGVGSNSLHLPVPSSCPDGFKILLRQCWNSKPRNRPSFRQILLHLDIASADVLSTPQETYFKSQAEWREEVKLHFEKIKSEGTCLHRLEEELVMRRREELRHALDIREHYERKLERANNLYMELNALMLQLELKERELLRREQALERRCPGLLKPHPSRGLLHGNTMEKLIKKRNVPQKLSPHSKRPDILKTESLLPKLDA

- IC50 (DLK): 3.2 nM
- IC50 (LZK): 29 nM
SMILES: CC[C@H](NC(=O)c1cc(-c2cc(C(=O)N[C@@H](C)CC)c3nc(N)nn3c2)cs1)c1ccc(F)cc1 [Compound 112, 2-Amino-N-[(2S)-butan-2-yl]-6-(5-{[(1S)-1-(4-fluorophenyl)propyl]carbamoyl}thiophen-3-yl)[1,2,4]triazolo[1,5-a]pyridine-8-carboxamide]

Reference: US20230382904A1, “SUBSTITUTED 4-([1,2,4]TRIAZOLO[1,5-a]PYRIDIN-6-YL)THIOPHENE-2-CARBOXAMIDE DERIVATIVES AND USE THEREOF” (The Johns Hopkins University, priority 2020, published 2023)
